Counter-ions that a name gives are not always drawn.
Key:
MCF7 = test: Cytotoxicity on MCF7 monolayers (MTT assay); conditions: for cytotoxicity at 50 µM: Homo sapiens, MCF7, 72 h, read-out: Mean of % cytotoxicity ± SD
Method: (§1) Eighty pre-plated synthetic chemical compounds were screened on two human cell lines: MCF7 (ATCC® HTB-22™), a Caucasian breast adenocarcinoma model, and hTERT-RPE-1 (ATCC® CRL-4000™), a normal retinal epithelial cell line immortalized by hTERT telomerase. […] The cells were cultured in DMEM-F12 medium supplemented with L-glutamine and 10% fetal bovine serum, all were purchase from Biowest (Biotechnology company in Nuaillé, France), and maintained in a controlled incubator environment set at 37 °C with 5% CO2 and 95% humidity.
MCF7 cells were seeded in flat-bottom 96-well plates with a concentration of 20,000 cells/well, and were left overnight. The compounds were tested at a final concentration of 50 µM. Doxorubicin was used as a positive control and 0.5% DMSO as a negative control. The treatment duration was 72 h. The cytotoxicity was then assessed using the MTT assay, as described by Mosmann[43].

MCF7 3D spheroids = test: Cytotoxicity on MCF7 3D multicellular spheroids (acid phosphatase method); conditions: for cytotoxicity at 50 µM: Homo sapiens, MCF7, 120 h, read-out: Mean of % cytotoxicity ± S.D
Method: as §1
3-D spheroid models were generated from MCF7 cancer and hTERT-RPE1 normal cells were seeded at 10,000 and 50,000 cells/well, respectively, in poly-HEMA coated round bottom plates according to the protocol previously mentioned[44]. The cells were incubated for 5 days to generate the spheroids with diameter of 500 ± 20 µm. The spheroids were imaged using Olympus S100, U-CMAD3 camera connected to Olympus inverted microscope and the diameter of the spheroids was measured using Cellscen-Entry software. Test compounds were added in triplicate to a final concentration of 50 µM and were incubated for 120 h. […] At the end of incubation, cytotoxicity was determined using the acid phosphatase method[45]. After washing twice with 250 μL PBS buffer, 100 μL of 0.1 M sodium citrate, 0.1% Triton X-100, p-nitrophenylphosphate (2 mg/ml) (Pierce Biotechnology Inc., Rockford, IL) was added to each well and incubated for 1.5 h at 37 °C. After incubation, 10 μL of 1N NaOH stop solution was added to each well, and absorbance was read at 405 nm. Cytotoxicity was calculated according to the following equation:

Structure (SMILES)	% inhibition 2D (MCF7; MCF7 monolayer, 50 µM)	Mean of % cytotoxicity ± SD (MCF7; MCF7 monolayer, 50µM, 72 h, MTT)	% inhibition 3D (MCF7 3D spheroids; MCF7 3D spheroids, 50 µM)	Mean of % cytotoxicity ± S.D (MCF7 3D spheroids; MCF7 3D spheroids, 50µM, 120 h)	cytotoxicity at 50 µM (MCF7)	cytotoxicity at 50 µM (MCF7 3D spheroids)
NC(=NOC(=O)Nc1ccc(OC(F)(F)F)cc1)c1cnccn1 [E08, N'-({[4-(trifluoromethoxy)anilino]carbonyl}oxy) pyrazine-2-carboximidamide]	84.1%	84.1 ± 1.6%	40.2%	40.2 ± 3.8%		
CC(=O)c1ccccc1OC(=O)c1ccc([N+](=O)[O-])o1 [C08, 2-acetylphenyl 5-nitro-2-furoate]					66.3 ± 4.3%	30.8 ± 1.3%
COc1cc(-n2c(S)nnc2CCc2nc(-c3ccc(Cl)cc3)no2)c(OC)cc1Cl [D07, 4-(4-chloro-2,5-dimethoxyphenyl)-5-{2-[3-(4-chlorophenyl)-1,2,4-oxadiazol-5-yl]ethyl}-4H-1,2,4-triazole-3-thiol]					88.7 ± 0.23%	50.1 ± 2.3%
Nc1ccc(-c2ccc(N)c([N+](=O)[O-])c2)cc1[N+](=O)[O-] [A06, 3,3'-dinitro[1,1'-biphenyl]-4,4'-diamine]					82.4 ± 0.41%	60.8 ± 1%
Cc1ccc(S(=O)(=O)CCNC(=O)c2c(-c3c(Cl)cccc3Cl)noc2C)cc1 [F07, N4-{2-[(4-methylphenyl)sulfonyl]ethyl}-3-(2,6-dichlorophenyl)-5-methylisoxazole-4-carboxamide]					4.4 ± 0.118%	54.2 ± 0.53%
CC(C)N1CC(COc2ccc(Br)cc2)OC1=O (stereo not drawn) [H08, 5-[(4-bromophenoxy)methyl]-3-isopropyl-1,3-oxazolan-2-one]					18 ± 2.23%	49 ± 1.4%
NS(=O)(=O)c1cccc(NC(=O)c2cccnc2Oc2ccccc2)c1 [G07, N-[3-(aminosulfonyl)phenyl]-2-phenoxynicotinamide]					0%	35.1 ± 0.77%
NS(=O)(=O)c1ccc(NNC(=O)c2cccs2)cc1 [E07, 4-[2-(2-thienylcarbonyl)hydrazino]benzenesulfonamide]					0%	36.2 ± 0.35%
CCOc1nc2ccccc2nc1OCC [E04, 2,3-diethoxyquinoxaline]					62.6 ± 3.1%	42 ± 1.1%
Cc1cc(C)n(-c2ccc(S(N)(=O)=O)cc2)n1 [C07, 4-(3,5-dimethyl-1H-pyrazol-1-yl)benzene-1-sulfonamide]					0%	55.4 ± 2.3%
COc1ccc(Cl)cc1NC(=O)Nc1ccc(N2CCCCC2)cc1 [E09, N-(5-chloro-2-methoxyphenyl)-N'-(4-piperidinophenyl) urea]					28.3 ± 0.9%	50.7 ± 0.52%
Cn1c(=NN=c2oc3ccccc3n2C)oc2ccccc21 [C03, 1,2-di(3-methyl-2,3-dihydro-1,3-benzoxazol-2-yliden)hydrazine]					86.6 ± 9.3%	3.4 ± 0.17%
Cc1c(NCN2C(=O)CCC2=O)cc2c(c1[N+](=O)[O-])C(C)(C)CC2(C)C [G09, 1-{[(1,1,3,3,6-pentamethyl-7-nitro-2,3-dihydro-1H-inden-5-yl)amino]methyl}pyrrolidine-2,5-dione]					100 ± 0.005%	66.5 ± 1.1%
Clc1ccc(OCCCCCCCCCCOc2ccc(Cl)cc2)cc1 [H02, 1,10-bis(4-chlorophenoxy)decane]					68.7 ± 2.7%	3.5 ± 0.8%
O=C(SCc1cccc(C(F)(F)F)c1)c1ccc(Cl)c(Cl)c1 [C10, S-[3-(trifluoromethyl)benzyl] 3,4-dichlorobenzene carbothioate]					100 ± 0.003%	33.8 ± 1.6%
Cc1nnsc1-c1nnc(-c2ccccc2C(F)(F)F)o1 [F09, 2-(4-methyl-1,2,3-thiadiazol-5-yl)-5-[2-(trifluoromethyl)phenyl]-1,3,4-oxadiazole]					9.9 ± 3.8%	14.2 ± 0.5%
C(=Cc1ccco1)C1=NN(Cc2ccccc2)CC1 [C05, 1-benzyl-3-[2-(2-furyl)vinyl]-4,5-dihydro-1H-pyrazole hydrochloride]					62.9 ± 3.8%	48.6 ± 2%

Reference: article PMC12663132, “Assessment of cytotoxicity of some synthetic compounds against breast carcinoma spheroids with subsequent analysis of pro-apoptotic and gene expression” (Scientific Reports, 2025)
